{"source": "paper PMC10726358", "about": "(Journal of Medicinal Chemistry, 2023)", "key": {"BRD2 BD1": {"target": "BRD2 BD1 (Homo sapiens, UniProt P25440)", "sequence (P25440 74-180 limits assumed)": "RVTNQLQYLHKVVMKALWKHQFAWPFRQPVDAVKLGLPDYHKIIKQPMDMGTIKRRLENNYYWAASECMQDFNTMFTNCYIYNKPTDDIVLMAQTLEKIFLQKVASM", "assay": "BRD2 BD1 TR-FRET assay", "assay_type": "binding", "experimental": "(§1) The BRD4 BD1/BD2 TR-FRET assay had been used routinely for this optimization work, and in order to better understand the BET BD1 domain selectivity profile, 31 was tested in TR-FRET BRD2, BRD3, and BRDT assays.\n(§2) All TR-FRET and hWB cytokine assays have been described previously.[54]"}, "V1a": {"target": "T1, V1a (Homo sapiens, UniProt P37288)", "T1 construct": "purchased GSK enhanced cross-screening panel (in-house)", "T1 sequence (P37288 whole entry)": "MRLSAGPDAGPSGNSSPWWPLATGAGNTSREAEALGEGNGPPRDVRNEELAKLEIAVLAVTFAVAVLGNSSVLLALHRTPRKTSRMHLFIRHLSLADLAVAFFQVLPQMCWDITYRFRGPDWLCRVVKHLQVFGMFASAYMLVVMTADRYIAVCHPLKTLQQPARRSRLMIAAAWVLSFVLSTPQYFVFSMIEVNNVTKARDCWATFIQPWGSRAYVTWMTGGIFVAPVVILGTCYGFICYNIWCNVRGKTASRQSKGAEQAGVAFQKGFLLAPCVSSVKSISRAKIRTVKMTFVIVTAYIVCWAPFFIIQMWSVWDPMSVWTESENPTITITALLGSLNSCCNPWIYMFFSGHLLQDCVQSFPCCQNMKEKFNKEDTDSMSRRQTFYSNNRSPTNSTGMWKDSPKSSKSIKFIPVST", "assay": "Cross screening: V1a antagonist", "assay_type": "biochemical"}, "BRD9": {"target": "T2, BRD9 (Homo sapiens, UniProt Q9H8M2)", "T2 construct": "≥2000-fold selectivity over all 20 non-BET bromodomains tested; purchased DiscoverX", "assay": "BROMOscan BRD9", "assay_type": "binding", "experimental": "as §1\n(§3) [52] BROMOscan recombinant protein binding assays were carried out at DiscoverX. (accessed April 4, 2023)."}, "GR": {"target": "T3, GR (Homo sapiens, UniProt P04150)", "T3 construct": "purchased GSK enhanced cross-screening panel (in-house)", "assay": "Cross screening: GR Agonist", "assay_type": "biochemical"}, "BRDT BD2": {"target": "BRDT BD2 (Homo sapiens, UniProt Q58F21)", "assay": "BROMOscan BRDT BD2", "assay_type": "binding", "experimental": "as §1, §3"}, "SMARCA4": {"target": "T4, SMARCA4 (Homo sapiens, UniProt P51532)", "T4 construct": "≥2000-fold selectivity over all 20 non-BET bromodomains tested; purchased DiscoverX", "T4 sequence (P51532 1453-1564 limits assumed)": "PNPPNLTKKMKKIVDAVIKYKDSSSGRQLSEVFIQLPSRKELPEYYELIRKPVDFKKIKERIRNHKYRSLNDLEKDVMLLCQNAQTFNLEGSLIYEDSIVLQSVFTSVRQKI", "assay": "BROMOscan SMARCA4", "assay_type": "binding", "experimental": "as §1, §3"}, "Alpha 1B": {"target": "T5, Alpha 1B (Homo sapiens, UniProt P35368)", "T5 construct": "purchased GSK enhanced cross-screening panel (in-house)", "assay": "Cross screening: Alpha 1B antagonist", "assay_type": "biochemical"}, "5-HT2C": {"target": "T6, 5-HT2C (Homo sapiens, UniProt P28335)", "T6 construct": "purchased GSK enhanced cross-screening panel (in-house)", "assay": "Cross screening: 5-HT2C Agonist", "assay_type": "biochemical"}, "OATP1B1": {"target": "OATP1B1 (Homo sapiens, UniProt Q9Y6L6)", "sequence (Q9Y6L6 whole entry)": "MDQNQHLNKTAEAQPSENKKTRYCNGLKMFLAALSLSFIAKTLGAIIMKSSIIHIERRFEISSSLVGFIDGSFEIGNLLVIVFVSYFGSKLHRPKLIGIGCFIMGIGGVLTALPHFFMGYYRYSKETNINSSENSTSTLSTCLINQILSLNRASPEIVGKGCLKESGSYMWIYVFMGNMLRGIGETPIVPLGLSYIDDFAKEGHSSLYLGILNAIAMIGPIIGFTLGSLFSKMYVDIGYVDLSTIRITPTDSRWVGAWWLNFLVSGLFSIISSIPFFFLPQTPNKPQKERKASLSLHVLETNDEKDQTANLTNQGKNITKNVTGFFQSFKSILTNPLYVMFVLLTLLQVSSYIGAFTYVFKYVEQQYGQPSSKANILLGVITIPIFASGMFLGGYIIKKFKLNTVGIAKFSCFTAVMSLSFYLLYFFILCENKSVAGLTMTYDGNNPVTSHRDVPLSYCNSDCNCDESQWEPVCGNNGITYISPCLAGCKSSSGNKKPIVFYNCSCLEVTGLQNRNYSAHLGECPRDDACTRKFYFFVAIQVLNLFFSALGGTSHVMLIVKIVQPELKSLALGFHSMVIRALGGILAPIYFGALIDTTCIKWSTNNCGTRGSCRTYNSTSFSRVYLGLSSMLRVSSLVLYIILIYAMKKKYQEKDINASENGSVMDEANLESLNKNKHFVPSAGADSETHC", "assay": "Cross screening: OATP1B1 inhibitor"}, "BRD3 BD1": {"target": "T7, BRD3 BD1 (Homo sapiens, UniProt Q15059)", "T7 construct": "BRD3 BD1; purchased DiscoverX", "T7 sequence (Q15059 34-140 limits assumed)": "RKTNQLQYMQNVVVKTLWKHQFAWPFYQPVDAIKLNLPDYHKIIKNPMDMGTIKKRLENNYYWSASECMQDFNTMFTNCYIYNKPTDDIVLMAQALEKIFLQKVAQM", "assay": "BROMOscan BRD3 BD1", "assay_type": "binding", "experimental": "as §1, §3"}, "BAZ2A": {"target": "T8, BAZ2A (Homo sapiens, UniProt Q9UIF9)", "T8 construct": "≥2000-fold selectivity over all 20 non-BET bromodomains tested; purchased DiscoverX", "T8 sequence (Q9UIF9 1793-1897 limits assumed)": "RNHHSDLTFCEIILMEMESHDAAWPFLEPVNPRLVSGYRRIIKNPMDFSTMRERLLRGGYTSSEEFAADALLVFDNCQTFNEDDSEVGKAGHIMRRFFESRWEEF", "assay": "BROMOscan BAZ2A", "assay_type": "binding", "experimental": "as §1, §3"}, "5-HT2A [1]": {"target": "T9, 5-HT2A (Homo sapiens, UniProt P28223)", "T9 construct": "purchased GSK enhanced cross-screening panel (in-house)", "T9 sequence (P28223 whole entry)": "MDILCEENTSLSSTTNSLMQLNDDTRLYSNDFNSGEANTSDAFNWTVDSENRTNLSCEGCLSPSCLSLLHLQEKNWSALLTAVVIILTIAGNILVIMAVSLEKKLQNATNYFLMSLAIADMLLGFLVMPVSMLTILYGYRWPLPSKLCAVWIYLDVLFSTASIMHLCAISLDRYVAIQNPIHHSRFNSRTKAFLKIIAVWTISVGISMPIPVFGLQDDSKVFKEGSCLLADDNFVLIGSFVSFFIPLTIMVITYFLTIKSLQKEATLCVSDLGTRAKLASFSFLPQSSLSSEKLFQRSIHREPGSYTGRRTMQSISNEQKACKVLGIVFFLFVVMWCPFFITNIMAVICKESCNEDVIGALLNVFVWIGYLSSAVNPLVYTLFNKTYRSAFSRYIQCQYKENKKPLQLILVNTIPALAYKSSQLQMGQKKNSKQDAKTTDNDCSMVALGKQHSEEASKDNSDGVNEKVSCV", "assay": "Cross screening: 5-HT2A Agonist", "assay_type": "biochemical"}, "Nav1.5": {"target": "Nav1.5 (Homo sapiens, UniProt Q14524)", "assay": "Cross screening: Nav1.5 blocker"}, "Kv1.5 (KCNA5)": {"target": "T10, Kv1.5 (KCNA5) (Homo sapiens, UniProt P22460)", "T10 construct": "purchased GSK enhanced cross-screening panel (in-house)", "assay": "Cross screening: Kv1.5 (KCNA5) blocker", "assay_type": "biochemical"}, "BRDT BD1": {"target": "BRDT BD1 (Homo sapiens, UniProt Q58F21)", "assay": "BRDT BD1 TR-FRET assay", "assay_type": "binding", "experimental": "as §1, §2"}, "Adenosine A2a": {"target": "T11, Adenosine A2a (Homo sapiens, UniProt P29274)", "T11 construct": "purchased GSK enhanced cross-screening panel (in-house)", "assay": "Cross screening: Adenosine A2a Human Agonist", "assay_type": "biochemical"}, "BAZ2B": {"target": "T12, BAZ2B (Homo sapiens, UniProt Q9UIF8)", "T12 construct": "≥2000-fold selectivity over all 20 non-BET bromodomains tested; purchased DiscoverX", "assay": "BROMOscan BAZ2B", "assay_type": "binding", "experimental": "as §1, §3"}, "[2]": {"assay": "Chromatographic LogD at pH 7.4"}, "Histamine 1": {"target": "T13, Histamine 1 (Homo sapiens, UniProt P35367)", "T13 construct": "purchased GSK enhanced cross-screening panel (in-house)", "T13 sequence (P35367 whole entry)": "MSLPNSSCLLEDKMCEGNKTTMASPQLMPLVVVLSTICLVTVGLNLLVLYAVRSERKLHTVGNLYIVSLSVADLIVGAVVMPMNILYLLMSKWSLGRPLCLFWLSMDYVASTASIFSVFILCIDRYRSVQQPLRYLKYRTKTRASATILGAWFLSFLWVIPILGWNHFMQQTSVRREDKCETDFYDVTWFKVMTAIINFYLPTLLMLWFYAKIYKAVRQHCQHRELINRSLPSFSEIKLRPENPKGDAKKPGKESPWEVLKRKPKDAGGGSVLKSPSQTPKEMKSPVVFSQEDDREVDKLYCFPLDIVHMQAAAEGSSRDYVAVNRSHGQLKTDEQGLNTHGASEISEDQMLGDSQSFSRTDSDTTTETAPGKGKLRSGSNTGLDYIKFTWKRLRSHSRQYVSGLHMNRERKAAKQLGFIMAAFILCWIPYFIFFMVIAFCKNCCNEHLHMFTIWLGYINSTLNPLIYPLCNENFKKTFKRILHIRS", "assay": "Cross screening: Histamine 1 antagonist", "assay_type": "biochemical"}, "BRD4 BD1": {"test_system": "BRD4 BD1", "assay_type": "binding, human", "conditions": "TR-FRET", "experimental": "(§4) As a strategic decision, every compound synthesized across all of GSK’s bromodomain research projects was tested in both a BRD4 BD1 and a BRD4 BD2 TR-FRET assay as part of tier 1 data generation. […] LipE is a straightforward, yet powerful metric for medicinal chemistry teams to normalize potency relative to lipophilicity, a critical factor both for parameters of the human dose equation and also for promiscuity.[43],[44] To aid interpretation, diagonal lines representing different LipE values are shown, with the most desirable space found toward the top left-hand area of the plot representing molecules with the comparatively highest potency per unit of lipophilicity.\nas §2"}, "BRD8 BD2": {"target": "T14, BRD8 BD2 (Homo sapiens, UniProt Q9H0E9)", "T14 construct": "BRD8 BD2; purchased DiscoverX", "assay": "BROMOscan BRD8 BD2", "assay_type": "binding", "experimental": "as §1, §3"}, "NMDA 1A/2B": {"target": "T15, NMDA 1A/2B (Homo sapiens, UniProt Q05586+Q13224)", "T15 construct": "purchased GSK enhanced cross-screening panel (in-house)", "T15 sequence (Q13224 27-1484, other chains not shown)": "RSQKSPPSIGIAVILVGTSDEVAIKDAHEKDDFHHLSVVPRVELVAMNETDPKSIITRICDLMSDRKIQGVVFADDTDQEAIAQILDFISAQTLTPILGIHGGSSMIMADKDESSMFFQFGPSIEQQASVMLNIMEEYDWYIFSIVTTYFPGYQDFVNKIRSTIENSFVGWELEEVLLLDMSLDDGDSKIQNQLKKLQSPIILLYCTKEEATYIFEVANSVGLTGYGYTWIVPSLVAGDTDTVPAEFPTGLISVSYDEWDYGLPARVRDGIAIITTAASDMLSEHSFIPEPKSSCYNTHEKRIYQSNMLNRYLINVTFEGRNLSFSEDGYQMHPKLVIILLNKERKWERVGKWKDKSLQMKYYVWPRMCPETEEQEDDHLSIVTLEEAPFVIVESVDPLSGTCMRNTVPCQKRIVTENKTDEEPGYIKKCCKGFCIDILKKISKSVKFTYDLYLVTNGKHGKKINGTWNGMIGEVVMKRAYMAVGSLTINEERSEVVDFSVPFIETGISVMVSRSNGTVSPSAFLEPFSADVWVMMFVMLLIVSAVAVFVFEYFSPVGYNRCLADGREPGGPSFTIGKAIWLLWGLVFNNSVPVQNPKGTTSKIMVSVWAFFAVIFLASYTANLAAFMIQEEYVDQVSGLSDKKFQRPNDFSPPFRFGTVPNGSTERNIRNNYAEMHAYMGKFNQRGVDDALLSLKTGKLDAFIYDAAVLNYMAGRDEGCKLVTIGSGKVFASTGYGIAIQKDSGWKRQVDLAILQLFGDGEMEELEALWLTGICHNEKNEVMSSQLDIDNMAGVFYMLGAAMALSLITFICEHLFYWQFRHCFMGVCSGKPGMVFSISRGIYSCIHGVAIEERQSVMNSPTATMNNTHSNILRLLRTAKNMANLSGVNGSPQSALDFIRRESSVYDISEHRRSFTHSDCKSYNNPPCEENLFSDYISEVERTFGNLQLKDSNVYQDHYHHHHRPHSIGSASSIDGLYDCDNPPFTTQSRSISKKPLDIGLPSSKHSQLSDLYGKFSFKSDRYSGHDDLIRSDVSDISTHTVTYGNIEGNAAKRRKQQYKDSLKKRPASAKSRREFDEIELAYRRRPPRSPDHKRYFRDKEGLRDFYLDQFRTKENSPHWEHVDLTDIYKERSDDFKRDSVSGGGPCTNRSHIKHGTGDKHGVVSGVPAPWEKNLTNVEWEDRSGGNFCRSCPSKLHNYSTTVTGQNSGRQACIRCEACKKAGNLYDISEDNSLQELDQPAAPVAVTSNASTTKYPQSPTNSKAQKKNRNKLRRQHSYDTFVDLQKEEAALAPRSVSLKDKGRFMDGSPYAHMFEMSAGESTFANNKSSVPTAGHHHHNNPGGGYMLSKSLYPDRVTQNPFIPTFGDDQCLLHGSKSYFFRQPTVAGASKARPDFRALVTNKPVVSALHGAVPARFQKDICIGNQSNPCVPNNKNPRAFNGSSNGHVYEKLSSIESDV", "assay": "Cross screening: NMDA 1A/2B antagonist", "assay_type": "biochemical"}, "BRD8 BD1": {"target": "T16, BRD8 BD1 (Homo sapiens, UniProt Q9H0E9)", "T16 construct": "BRD8 BD1; purchased DiscoverX", "assay": "BROMOscan BRD8 BD1", "assay_type": "binding", "experimental": "as §1, §3"}, "[3]": {"target": "T17, Acetylcholinesterase (AChE) (Homo sapiens, UniProt P22303)", "T17 construct": "purchased GSK enhanced cross-screening panel (in-house)", "assay": "Cross screening: Acetylcholinesterase (AChE) antagonist", "assay_type": "biochemical"}, "hCav1_2": {"target": "T18, hCav1_2 (Homo sapiens, UniProt Q13936)", "T18 construct": "purchased GSK enhanced cross-screening panel (in-house)", "assay": "Cross screening: hCav1_2 Blocker", "assay_type": "biochemical"}, "BRD4 BD2": {"test_system": "BRD4 BD2", "assay": "BRD4 BD2 TR-FRET assay", "assay_type": "binding, human", "experimental": "as §4, §2"}, "BRD1": {"target": "T19, BRD1 (Homo sapiens, UniProt O95696)", "T19 construct": "≥2000-fold selectivity over all 20 non-BET bromodomains tested; purchased DiscoverX", "assay": "BROMOscan BRD1", "assay_type": "binding", "experimental": "as §1, §3"}, "Alpha 1 nAChR": {"target": "T20, Alpha 1 nAChR (Homo sapiens, UniProt P02708+P07510+Q07001)", "T20 construct": "purchased GSK enhanced cross-screening panel (in-house)", "assay": "Cross screening: Alpha 1 nAChR Antagonist", "assay_type": "biochemical"}, "NK1": {"target": "T21, NK1 (Homo sapiens, UniProt P25103)", "T21 construct": "purchased GSK enhanced cross-screening panel (in-house)", "T21 sequence (P25103 whole entry)": "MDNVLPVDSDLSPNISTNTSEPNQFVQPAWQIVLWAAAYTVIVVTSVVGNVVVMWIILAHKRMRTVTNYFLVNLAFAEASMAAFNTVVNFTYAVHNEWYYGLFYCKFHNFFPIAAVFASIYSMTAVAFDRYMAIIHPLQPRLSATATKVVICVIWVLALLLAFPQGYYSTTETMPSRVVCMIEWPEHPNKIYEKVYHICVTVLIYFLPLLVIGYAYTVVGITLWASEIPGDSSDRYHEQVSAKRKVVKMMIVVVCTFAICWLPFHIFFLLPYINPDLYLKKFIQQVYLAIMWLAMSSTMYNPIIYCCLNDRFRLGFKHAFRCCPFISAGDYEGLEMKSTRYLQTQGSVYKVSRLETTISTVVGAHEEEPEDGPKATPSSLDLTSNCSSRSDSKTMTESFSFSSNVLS", "assay": "Cross screening: NK1 antagonist", "assay_type": "biochemical"}, "Beta2 Adrenoceptor": {"target": "T22, Beta2 Adrenoceptor (Homo sapiens, UniProt P07550)", "T22 construct": "purchased GSK enhanced cross-screening panel (in-house)", "assay": "Cross screening: Beta2 Adrenoceptor Antagonist", "assay_type": "biochemical"}, "SMARCA2": {"target": "T23, SMARCA2 (Homo sapiens, UniProt P51531)", "T23 construct": "≥2000-fold selectivity over all 20 non-BET bromodomains tested; purchased DiscoverX", "T23 sequence (P51531 1378-1506 limits assumed)": "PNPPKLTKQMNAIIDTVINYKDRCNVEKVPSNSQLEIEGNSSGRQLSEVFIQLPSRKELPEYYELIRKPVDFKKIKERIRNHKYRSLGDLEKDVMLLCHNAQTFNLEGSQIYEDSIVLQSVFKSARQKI", "assay": "BROMOscan SMARCA2", "assay_type": "binding", "experimental": "as §1, §3"}, "D1": {"target": "T24, D1 (Homo sapiens, UniProt P21728)", "T24 construct": "purchased GSK enhanced cross-screening panel (in-house)", "T24 sequence (P21728 whole entry)": "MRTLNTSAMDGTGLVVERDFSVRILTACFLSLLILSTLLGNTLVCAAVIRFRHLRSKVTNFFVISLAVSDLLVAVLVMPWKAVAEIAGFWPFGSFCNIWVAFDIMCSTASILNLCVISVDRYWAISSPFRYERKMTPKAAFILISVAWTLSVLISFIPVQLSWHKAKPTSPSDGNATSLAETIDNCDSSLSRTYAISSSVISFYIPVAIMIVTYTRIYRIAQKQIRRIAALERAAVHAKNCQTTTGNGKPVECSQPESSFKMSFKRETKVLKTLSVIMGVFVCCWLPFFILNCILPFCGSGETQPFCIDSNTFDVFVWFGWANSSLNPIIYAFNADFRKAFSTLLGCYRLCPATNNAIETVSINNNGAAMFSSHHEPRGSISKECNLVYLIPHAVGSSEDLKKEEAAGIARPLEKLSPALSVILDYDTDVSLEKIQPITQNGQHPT", "assay": "Cross screening: D1 antagonist", "assay_type": "biochemical"}, "5-HT2A [4]": {"target": "T9, 5-HT2A", "assay": "Cross screening: 5-HT2A antagonist", "assay_type": "biochemical"}, "CAD aqueous solubility": {"assay": "CAD aqueous solubility", "experimental": "To understand cellular target engagement, 21 was tested in an LPS-stimulated hWB assay measuring inhibition of the inflammatory mediator MCP-1 secretion.\nChromatographicLogD at pH 7.4, artificial membrane permeability, CLND solubility, and CAD solubility were measured using published protocols.[55]"}}}
{"compound": "Cc1cc(-c2nc3ccccc3n2C[C@@H]2CCCN(C(=O)C3CCN(C(C)C)CC3)C2)cn(C)c1=O", "note": "[Compound 31, (S)-5-(1-((1-(1-Isopropylpiperidine-4-carbonyl)piperidin-3-yl)methyl)-1H-benzo [d]imidazole-2-yl)-1,3-dimethylpyridin-2(1H)-one]", "values": [{"measurement": "BRD2 BD1 TR-FRET pIC50", "setting": "BRD2 BD1", "value": 8.0}, {"measurement": "fold selectivity BRD2 BD1 over BD2", "setting": "BRD2 BD1; TR-FRET", "value": 400, "unit": "fold"}, {"measurement": "pXC50 V1a antagonist", "setting": "V1a", "value": "< 4.3"}, {"measurement": "Kd", "setting": "BRD9", "value": 25.1, "unit": "µM"}, {"measurement": "pXC50 GR Agonist", "setting": "GR", "value": "< 4.0"}, {"measurement": "BROMOscan pKd BRDT BD2", "setting": "BRDT BD2", "value": 5.5}, {"measurement": "Kd", "setting": "SMARCA4", "value": "> 31.6", "unit": "µM"}, {"measurement": "pXC50 Alpha 1B antagonist", "setting": "Alpha 1B", "value": "< 4.6"}, {"measurement": "pXC50 5-HT2C Agonist", "setting": "5-HT2C", "value": "< 4.0"}, {"measurement": "pXC50 OATP1B1 inhibitor", "setting": "OATP1B1", "value": "< 4.3"}, {"measurement": "BROMOscan pKd BRD3 BD1", "setting": "BRD3 BD1", "value": 8.4}, {"measurement": "fold selectivity BRD3 BD1 over BD2", "setting": "BRD3 BD1; BROMOscan", "value": 400, "unit": "fold"}, {"measurement": "Kd", "setting": "BAZ2A", "value": "> 31.6", "unit": "µM"}, {"measurement": "pXC50 5-HT2A Agonist", "setting": "5-HT2A [1]", "value": "< 4.0"}, {"measurement": "pXC50 Nav1.5 blocker", "setting": "Nav1.5", "value": "< 4.3"}, {"measurement": "pXC50 Kv1.5 (KCNA5) blocker", "setting": "Kv1.5 (KCNA5)", "value": "< 4.3"}, {"measurement": "BRDT BD1 TR-FRET pIC50", "setting": "BRDT BD1", "value": 7.3}, {"measurement": "fold selectivity BRDT BD1 over BD2", "setting": "BRDT BD1; TR-FRET", "value": 630, "unit": "fold"}, {"measurement": "pXC50 Adenosine A2a Human Agonist", "setting": "Adenosine A2a", "value": "< 4.0"}, {"measurement": "Kd", "setting": "BAZ2B", "value": "> 31.6", "unit": "µM"}, {"measurement": "PFI (property forecast index)", "setting": "[2]; chromLogDpH7.4 + number of aromatic rings", "value": 4.7}, {"measurement": "chromatographic logD", "setting": "[2]; pH 7.4", "value": 1.7}, {"measurement": "pXC50 Histamine 1 antagonist", "setting": "Histamine 1", "value": "< 4.6"}, {"measurement": "BRD4 BD1 FRET pIC50", "setting": "BRD4 BD1", "value": 7.8}, {"measurement": "fold selectivity (BRD4 BD1 over BRD4 BD2)", "setting": "BRD4 BD1", "value": 1000, "unit": "fold"}, {"measurement": "Kd", "setting": "BRD8 BD2", "value": "> 31.6", "unit": "µM"}, {"measurement": "pXC50 NMDA 1A/2B antagonist", "setting": "NMDA 1A/2B", "value": "< 4.0"}, {"measurement": "Kd", "setting": "BRD8 BD1", "value": "> 31.6", "unit": "µM"}, {"measurement": "pXC50 Acetylcholinesterase (AChE) antagonist", "setting": "[3]", "value": "< 4.0"}, {"measurement": "pXC50 hCav1_2 Blocker", "setting": "hCav1_2", "value": "< 4.0"}, {"measurement": "BRD4 BD2 FRET pIC50", "setting": "BRD4 BD2", "value": 4.8}, {"measurement": "Kd", "setting": "BRD1", "value": "> 31.6", "unit": "µM"}, {"measurement": "pXC50 Alpha 1 nAChR Antagonist", "setting": "Alpha 1 nAChR", "value": "< 4.2"}, {"measurement": "pXC50 NK1 antagonist", "setting": "NK1", "value": "< 4.6"}, {"measurement": "pXC50 Beta2 Adrenoceptor Antagonist", "setting": "Beta2 Adrenoceptor", "value": "< 4.0"}, {"measurement": "Kd", "setting": "SMARCA2", "value": "> 31.6", "unit": "µM"}, {"measurement": "pXC50 D1 antagonist", "setting": "D1", "value": "< 4.0"}, {"measurement": "pXC50 5-HT2A antagonist", "setting": "5-HT2A [4]", "value": "< 4.0"}, {"measurement": "solubility", "setting": "CAD aqueous solubility", "value": "≥ 257", "unit": "µg/mL"}]}
